How the values were obtained:
Type in all cases: cell-based
[1] = tested on: THP-1 human monocyte cell line; test: Pathway enrichment (DAVID) in THP-1 cells, Example 9; conditions: genes upregulated vs mannitol, 6 hours
Protocol: Nucleic Acids Res. 37, 1-13 (2009)]. Pathway enrichment results were visualized using volcano plots, plotting −log p-values versus enrichment scores. For GA MOA, to obtain top-gene lists of appropriate size (tens-hundreds) for use with DAVID, an absolute-value fold-change cutoff of 1.5 and p-value cutoff of 1e-3 were utilized to obtain gene lists for pathway enrichment. […] DAVID runs were conducted on Sep. […] Please note that the GO databases are updated daily (as noted on the GO site:www.geneontology.org/GO.downloads.ontology.shtml) and therefore performing the same enrichments on the same genesets may yield slightly varying results depending on the rundate. Pathway p-values may change slightly between runs conducted at different times; the overall picture of enriched pathways, however, is expected to remain consistent.
Performing the same enrichments on the same genesets may yield slightly varying results depending on the run date (GO databases are updated daily: www.geneontology.org/GO.downloads.ontology.shtml).

mouse splenocytes = test: Immunological cell type enrichment for genes modulated by GA in mouse splenocytes; design: Score: scale not given here
Description: Genome-wide expression profiles in cells from three different datasets in two different species (human, mouse) were studied. LIMMA was utilized to identify a genome-wide list of differentially expressed genes induced by GA in the primed and ex vivo stimulated mouse splenocytes, as well as in the THP-1 human monocyte cell line. Repeated-measures ANOVA was utilized to find a genome-wide list of genes modulated by GA in treated MS patients. Advanced enrichment algorithms were then applied to elucidate the pathways and cell types modulated by GA.
In addition to the shared induced effects discussed above, each system and platform clearly captured different aspects of GA's impact on the immune system. […] In human PBMCs, genes associated with immune cell types were modulated early in treatment (by month 3), including certain cell types affected in prior systems, but also distinct cell types, such as megakaryocytes and myeloid progenitors (Table 11).

[2] = tested on: THP-1 human monocyte cell line; test: Microarray gene expression in THP-1 cells, Polimunol vs Copaxone, 6 hours (Example 9)
Description: Based on previous power calculations (using the R package ssize.fdr), to detect differentially-expressed genes with a fold-change between treatments of as low as 1.3 with 80% power the experiment was designed to include six replicates of each condition. The order of sample processing was randomized with respect to treatment in order to avoid creating confounding batch effects.
RNA was extracted and expression profiled genome-wide using the Affymetrix U133 Plus 2.0 chip. Three batches of Copaxone® and one batch of Polimunol were comparatively tested in six replicates each. RNA processing was performed by Expression Analysis (NC, USA).
Differentially-expressed probesets were identified across conditions using linear models for microarray data (LIMMA). For comparing Copaxone® (“GA”) and purported generic, comparisons were corrected for mannitol control (i.e., [GA vs mannitol] was compared to [purported generic vs mannitol]). Probesets were filtered by calls of presence on the chip for the relevant samples in the comparison (to be considered present at a given timepoint, a probeset was required to have on average a call of present or marginal across the relevant samples at that timepoint). Probesets were mapped to genes using the U133 Plus 2.0 chip annotation from Affymetrix.

[3] = tested on: THP-1 human monocyte cell line; test: Microarray gene expression in THP-1 cells, Polimunol vs Copaxone, two repeats, 6 hours (Example 11)
[4] = B.GC.Sp.rnk, Upregulated (top 20 results)
[5] = DC.103.11b..LuLN.rnk, Downregulated (top 20 results)
[6] = DC.103.11b..PolyIC.Lu.rnk, Upregulated (top 20 results)
[7] = DC.103.11b.24..Lu.rnk, Upregulated (top 20 results)
[8] = DC.8.4.11b..SLN.rnk, Downregulated (top 20 results)
[9] = DC.Ilhilang.103.11b..SLN.rnk, Downregulated (top 20 results)
[10] = DC.Ilhilang.103.11blo.SLN.rnk, Downregulated (top 20 results)
[11] = DC.LC.Sk.rnk, Upregulated (top 20 results)
[12] = GN.Arth.BM.rnk, Downregulated (top 20 results)
[13] = GN.Arth.SynF.rnk, Downregulated (top 20 results)
[14] = GN.BI.rnk, Downregulated (top 20 results)
[15] = GN.BM.rnk, Downregulated (top 20 results)
[16] = GN.Thio.PC.rnk, Downregulated (top 20 results)
[17] = GN.UrAc.PC.rnk, Downregulated (top 20 results)
[18] = Mo.6C.Il..BM.rnk, Downregulated (top 20 results)
[19] = Mo.6C.Ilint.BI.rnk, Downregulated (top 20 results)
[20] = NK.H..MCMV1.Sp.rnk, Upregulated (top 20 results)
[21] = NK.MCMV1.Sp.rnk, Upregulated (top 20 results)
[22] = SC.CDP.BM.rnk, Downregulated (top 20 results)
[23] = SC.GMP.BM.rnk, Downregulated (top 20 results)
[24] = SC.MDP.BM.rnk, Downregulated (top 20 results)
[25] = SC.MEP.BM.rnk, Upregulated (top 20 results)
[26] = T.4FP3.25..AA.rnk, Upregulated (top 20 results)
[27] = T.4SP24int.Th.rnk, Downregulated (top 20 results)
[28] = T.8Eff.Sp.OT1.12hr.LisOva.rnk, Upregulated (top 20 results)
[29] = T.8Eff.Sp.OT1.24hr.LisOva.rnk, Upregulated (top 20 results)
[30] = T.8Eff.Sp.OT1.48hr.LisOva.rnk, Upregulated (top 20 results)
[31] = T.8Nve.Sp.OT1.rnk, Downregulated (top 20 results)
[32] = T.DPbl.Th.rnk, Upregulated (top 20 results)
[33] = T.ISP.Th.rnk, Upregulated (top 20 results)
[34] = Tgd.vg2.24ahi.e17.Th.rnk, Upregulated (top 20 results)
[35] = Tgd.vg3.24alo.e17.Th.rnk, Upregulated (top 20 results)
[36] = preB.FrC.BM.rnk, Upregulated (top 20 results)
[37] = preT.DN3B.Th.rnk, Upregulated (top 20 results)
[38] = preT.DN3.4.Th.rnk, Upregulated (top 20 results)
[39] = proB.CLP.BM.rnk, Downregulated (top 20 results)
[40] = proB.CLP.FL.rnk, Downregulated (top 20 results)
[41] = proB.FrA.FL.rnk, Upregulated (top 20 results)
[42] = proB.FrBC.FL.rnk, Upregulated (top 20 results)
[43] = In two prior THP-1 studies (intersection of both prior datasets)
[44] = Intersection of prior THP-1 studies and current study

glatiramer acetate [Copaxone®]
Fold Enrichment ([1]; GO:0001503~ossification (GOTERM BP_ALL)): 4.068 | Fold Enrichment ([1]; GO:0007204~elevation of cytosolic calcium ion concentration (GOTERM BP_ALL)): 4.773 | Fold Enrichment ([1]; GO:0010557~positive regulation of macromolecule biosynthetic process (GOTERM BP_ALL)): 1.871 | Fold Enrichment ([1]; GO:0010628~positive regulation of gene expression (GOTERM BP_ALL)): 1.936 | Fold Enrichment ([1]; GO:0051241~negative regulation of multicellular organismal process (GOTERM BP_ALL)): 3.649 | Score (mouse splenocytes; [4]): 602.5 | p.val (mouse splenocytes; [4]): 1.01E−12 | Score (mouse splenocytes; [5]): 1152 | p.val (mouse splenocytes; [5]): 2.47E−06 | Score (mouse splenocytes; [6]): 705 | p.val (mouse splenocytes; [6]): 1.44E−14 | Score (mouse splenocytes; [7]): 738.3 | p.val (mouse splenocytes; [7]): 8.91E−12 | Score (mouse splenocytes; [8]): 1117 | p.val (mouse splenocytes; [8]): 1.86E−07 | Score (mouse splenocytes; [9]): 1151 | p.val (mouse splenocytes; [9]): 9.94E−08 | Score (mouse splenocytes; [10]): 1112 | p.val (mouse splenocytes; [10]): 5.07E−08 | Score (mouse splenocytes; [11]): 709.9 | p.val (mouse splenocytes; [11]): 2.89E−15 | Score (mouse splenocytes; [12]): 1218 | p.val (mouse splenocytes; [12]): 0 | Score (mouse splenocytes; [13]): 1160 | p.val (mouse splenocytes; [13]): 2.72E−11 | Score (mouse splenocytes; [14]): 1185 | p.val (mouse splenocytes; [14]): 6.66E−15 | Score (mouse splenocytes; [15]): 1212 | p.val (mouse splenocytes; [15]): 1.11E−16 | Score (mouse splenocytes; [16]): 1197 | p.val (mouse splenocytes; [16]): 6.39E−14 | Score (mouse splenocytes; [17]): 1145 | p.val (mouse splenocytes; [17]): 5.87E−14 | Score (mouse splenocytes; [18]): 1095 | p.val (mouse splenocytes; [18]): 1.71E−06 | Score (mouse splenocytes; [19]): 1107 | p.val (mouse splenocytes; [19]): 1.62E−05 | Score (mouse splenocytes; [20]): 770.8 | p.val (mouse splenocytes; [20]): 7.11E−15 | Score (mouse splenocytes; [21]): 793.3 | p.val (mouse splenocytes; [21]): 1.51E−14 | Score (mouse splenocytes; [22]): 1078 | p.val (mouse splenocytes; [22]): 0 | Score (mouse splenocytes; [23]): 1341 | p.val (mouse splenocytes; [23]): 1.56E−05 | Score (mouse splenocytes; [24]): 1206 | p.val (mouse splenocytes; [24]): 1.56E−05 | Score (mouse splenocytes; [25]): 641.2 | p.val (mouse splenocytes; [25]): 0 | Score (mouse splenocytes; [26]): 697.6 | p.val (mouse splenocytes; [26]): 2.76E−11 | Score (mouse splenocytes; [27]): 1040 | p.val (mouse splenocytes; [27]): 0 | Score (mouse splenocytes; [28]): 683 | p.val (mouse splenocytes; [28]): 0 | Score (mouse splenocytes; [29]): 661.8 | p.val (mouse splenocytes; [29]): 5.97E−14 | Score (mouse splenocytes; [30]): 587.7 | p.val (mouse splenocytes; [30]): 0 | Score (mouse splenocytes; [31]): 1095 | p.val (mouse splenocytes; [31]): 0 | Score (mouse splenocytes; [32]): 659.3 | p.val (mouse splenocytes; [32]): 0 | Score (mouse splenocytes; [33]): 584.9 | p.val (mouse splenocytes; [33]): 0 | Score (mouse splenocytes; [34]): 620 | p.val (mouse splenocytes; [34]): 9.88E−13 | Score (mouse splenocytes; [35]): 620.8 | p.val (mouse splenocytes; [35]): 2.72E−11 | Score (mouse splenocytes; [36]): 620.2 | p.val (mouse splenocytes; [36]): 0 | Score (mouse splenocytes; [37]): 568 | p.val (mouse splenocytes; [37]): 1.64E−10 | Score (mouse splenocytes; [38]): 560.7 | p.val (mouse splenocytes; [38]): 2.96E−10 | Score (mouse splenocytes; [39]): 1181 | p.val (mouse splenocytes; [39]): 1.35E−06 | Score (mouse splenocytes; [40]): 1115 | p.val (mouse splenocytes; [40]): 0 | Score (mouse splenocytes; [41]): 578.6 | p.val (mouse splenocytes; [41]): 7.17E−11 | Score (mouse splenocytes; [42]): 595.3 | p.val (mouse splenocytes; [42]): 0 | IL10RA expression relative to mannitol ([2]; adjusted p<2.8e-14): significantly upregulated | IL1RN expression relative to mannitol ([2]; adjusted p<2.8e-10): significantly upregulated | IL10 expression relative to mannitol ([2]; probeset called absent, p<0.029): nominally upregulated | Probesets significantly modulated by Copaxone relative to mannitol ([3]; 6 hours): 12,115 | IL1ORA expression relative to mannitol ([3]; FDR p<1.7e-21): significantly upregulated | Probesets downregulated by Copaxone versus mannitol with FC ≦ −1.5, number ([3]; In current study): 28 | Probesets upregulated by Copaxone versus mannitol with FC ≧ 1.5, number ([3]; In current study): 156 | Probesets downregulated by Copaxone versus mannitol with FC ≦ −1.5, number [3, 43]: 15 | Probesets upregulated by Copaxone versus mannitol with FC ≧ 1.5, number [3, 43]: 149 | Probesets downregulated by Copaxone versus mannitol with FC ≦ −1.5, number [3, 44]: 9 | Probesets upregulated by Copaxone versus mannitol with FC ≧ 1.5, number [3, 44]: 94 | IL1RN expression relative to mannitol ([3]; all 3 present probesets: FDR p values<6.2e-21, 2.6e-17, 8.0e-14): strongly upregulated | IL10 expression relative to mannitol ([3]; single probeset not present): not upregulated significantly | Significant probesets in pairwise comparisons between three Copaxone lots ([3]; two comparisons / third comparison (adjusted p value 0.044)): zero and single | Probesets significantly downregulated by Copaxone ([3]; vs mannitol, 6 hours): 6819 | Probesets significantly upregulated by Copaxone ([3]; vs mannitol, 6 hours): 5296

Reference: patent publication US20170003277A1 (priority 2015, published 2017)
